Measurements as given in patent US9186093B2, “Compositions and methods for screening cardioactive drugs” (THE REGENTS OF THE UNIVERSITY OF CALIFORNIA, priority 2008, dated 2015).

How the values were obtained:
[1] = system: fly heart; assay: Drug application to the fly heart, induction of arrhythmias; assay type: in vivo, Drosophila; conditions: HERG and KCNQ channels present in fly heart
Description: According to another embodiment of the invention, methods are provided for testing a compound for cardioactivity comprising: (a) providing a composition comprising an excised, denervated Drosophila heart that retains myogenic activity, and a physiologically acceptable hemolymph fluid in contact with said Drosophila heart; (b) contacting the composition with the compound; and (c) assessing the effect of the compound on the myogenic activity of the semi-intact Drosophila heart. In one such embodiment the method comprises assessing the effect of the compound on myogenic activity of the semi-intact Drosophila heart by producing images of the semi-intact Drosophila heart and analyzing the images. In another such embodiment, the method comprises determining a member of the group consisting of heart period, heart rate, diastolic interval, systolic interval, standard deviation of heart period, standard deviation of heart rate, standard deviation of diastolic interval, standard deviation of systolic interval, percent fractional shortening of heart contraction, arrhythmia index, velocity of heart muscle contraction, and directionality of heart muscle contraction.
These are thought to be due to drug effects on both HERG and KCNQ channels. […] Thus, this system can be used to screen for possible drug side effects.

[2] = system: patients; conditions: some patients; thought to be due to effects on HERG and KCNQ channels; cited from earlier work

## CCCCCCCN(CC)CCCC(O)c1ccc(NS(C)(=O)=O)cc1 (stereo not shown) [ibutilide]
[1]
  induction of arrhythmias in the fly: induce arrhythmias in the fly
[2]
  induction of arrhythmias in patients: induce arrhythmias in some patients

## CCCCCCC[N+](CC)(CC)CCCCc1ccc(Cl)cc1 [clofilium]
[1]
  induction of arrhythmias in the fly: induce arrhythmias in the fly
[2]
  induction of arrhythmias in patients: induce arrhythmias in some patients
